PubChem BioAssay AID1259407 (Chemical Carcinogenesis Research Information System (CCRIS), 2018)
Activity calls are given as the source filed them. How the calls were made is not given here.

Tested on: CCRIS mutagenicity, Ames/micronucleus/aberration tests
Assay: CCRIS mutagenicity studies
[1] = Test System: AMES SALMONELLA TYPHIMURIUM, Strain/Indicator: TA98, Metabolic Activation: NONE, Method: PREINCUBATION
[2] = Test System: AMES SALMONELLA TYPHIMURIUM, Strain/Indicator: TA98, Metabolic Activation: NONE, Method: STANDARD PLATE
[3] = Test System: AMES SALMONELLA TYPHIMURIUM, Strain/Indicator: TA98, Metabolic Activation: RAT, LIVER, S-9, AROCLOR 1254, Method: STANDARD PLATE
[4] = Test System: AMES SALMONELLA TYPHIMURIUM, Strain/Indicator: TA100, Metabolic Activation: NONE, Method: STANDARD PLATE
[5] = Test System: AMES SALMONELLA TYPHIMURIUM, Strain/Indicator: TA100, Metabolic Activation: RAT, LIVER, S-9, AROCLOR 1254, Method: STANDARD PLATE
[6] = Test System: AMES SALMONELLA TYPHIMURIUM, Strain/Indicator: TA100, Metabolic Activation: NONE, Method: PREINCUBATION
[7] = Test System: UDS HUMAN CELLS, Strain/Indicator: THY INCORP (NON-S-PHASE), Metabolic Activation: RAT, LIVER, S-9, PHENOBARBITAL, Method: LIQUID SCINTILLATION COUNTING

In the case of `O=C1c2ccccc2-c2ccc([N+](=O)[O-])cc21`, the mutagenic call (Test System: AMES SALMONELLA TYPHIMURIUM, Strain/Indicator: TA98 (1,8-DNP6), Metabolic Activation: NONE, Method: PREINCUBATION) is reported as “active; positive”, the mutagenic call (Test System: AMES SALMONELLA TYPHIMURIUM, Strain/Indicator: TA98(1,8-DNP6), Metabolic Activation: NONE, Method: STANDARD PLATE) is reported as “active; positive” and the mutagenic call (Test System: AMES SALMONELLA TYPHIMURIUM, Strain/Indicator: TA98 (NR), Metabolic Activation: NONE, Method: PREINCUBATION) is reported as “active; positive”. The mutagenic call (Test System: AMES SALMONELLA TYPHIMURIUM, Strain/Indicator: TA98(NR), Metabolic Activation: NONE, Method: STANDARD PLATE) was “active; positive”, the mutagenic call (Test System: AMES SALMONELLA TYPHIMURIUM, Strain/Indicator: TA98(NR), Metabolic Activation: RAT LIVER S-9 (10%), Method: PREINCUBATION) was “active; positive” and the mutagenic call (Test System: AMES SALMONELLA TYPHIMURIUM, Strain/Indicator: TA98(NR), Metabolic Activation: RAT LIVER S-9, 3-METHYLCHOLANTHRENE (10%), Method: PREINCUBATION) was “active; positive”. The mutagenic call (Test System: AMES SALMONELLA TYPHIMURIUM, Strain/Indicator: TA98(NR), Metabolic Activation: RAT LIVER S-9, BETA-NAPHTHAFLAVONE (10%), Method: PREINCUBATION) was “active; positive”, the mutagenic call (Test System: AMES SALMONELLA TYPHIMURIUM, Strain/Indicator: TA98(NR), Metabolic Activation: RAT LIVER S-9, PCB (10%), Method: PREINCUBATION) was “active; positive” and the mutagenic call (Test System: AMES SALMONELLA TYPHIMURIUM, Strain/Indicator: TA98(NR), Metabolic Activation: RAT LIVER S-9, PHENOBARBITAL (10%), Method: PREINCUBATION) was “active; positive”. The mutagenic call [1] was “active; positive”, the mutagenic call [2] was “active; positive” and the mutagenic call [3] was “active; positive”. The mutagenic call [4] was “active; positive”, the mutagenic call [5] was “active; positive” and the mutagenic call (Test System: AMES SALMONELLA TYPHIMURIUM, Strain/Indicator: TA1538, Metabolic Activation: NONE) was “active; positive”. For the same molecule, the mutagenic call (Test System: AMES SALMONELLA TYPHIMURIUM, Strain/Indicator: TA7001, Metabolic Activation: NONE, Method: PREINCUBATION) was “inactive; negative”, the mutagenic call (Test System: AMES SALMONELLA TYPHIMURIUM, Strain/Indicator: TA7002, Metabolic Activation: NONE, Method: PREINCUBATION) was “active; positive” and the mutagenic call (Test System: AMES SALMONELLA TYPHIMURIUM, Strain/Indicator: TA7003, Metabolic Activation: NONE, Method: PREINCUBATION) was “inactive; negative”. The mutagenic call (Test System: AMES SALMONELLA TYPHIMURIUM, Strain/Indicator: TA7004, Metabolic Activation: NONE, Method: PREINCUBATION) was “active; positive”, the mutagenic call (Test System: AMES SALMONELLA TYPHIMURIUM, Strain/Indicator: TA7005, Metabolic Activation: NONE, Method: PREINCUBATION) was “active; positive” and the mutagenic call (Test System: AMES SALMONELLA TYPHIMURIUM, Strain/Indicator: TA7006, Metabolic Activation: NONE, Method: PREINCUBATION) was “active; positive”. For the same molecule, the mutagenic call (Test System: AMES SALMONELLA TYPHIMURIUM, Strain/Indicator: YG7131, Metabolic Activation: NONE) was “active; positive”.

In the case of `CC(=O)Nc1ccc([C@@H]2O[C@@H]2C(=O)c2ccccc2)cc1`, the mutagenic call [2] is reported as “inactive; negative”, the mutagenic call [3] is reported as “active; positive” and the mutagenic call [4] is reported as “active; positive”. The mutagenic call [5] was “active; positive”.

With `CCCCCCCCCCCCN=C(N)N` the mutagenic call (End Point: In vitro chromosomal aberrations, Test System: Cultured human (male) lymphocytes, Metabolic Activation: None) was “inactive; negative”, the mutagenic call (End Point: In vitro chromosomal aberrations, Test System: Cultured human (male) lymphocytes, Metabolic Activation: S-9) was “inactive; negative” and the mutagenic call (End Point: In vivo micronucleus, Test System: Blood erythrocytes, Species: Mouse, Strain/Sex: ICR (male and female), 5-20/sex/dose, Route: Oral) was “inactive; negative”. The mutagenic call (End Point: In vivo micrunucleus, Test System: Bone marrow polychromatic erythrocytes, Species: Mouse, Strain/Sex: Males and females, Route: Oral) was “inactive; negative”, the mutagenic call (Test System: Ames Salmonella typhimurium, Strain/Indicator: TA98, Metabolic Activation: None, Method: Plate incorporation) was “inactive; negative” and the mutagenic call (Test System: Ames Salmonella typhimurium, Strain/Indicator: TA98, Metabolic Activation: Rat, Liver, S-9, Aroclor, Method: Plate incorporation) was “inactive; negative”. The mutagenic call (Test System: Ames Salmonella typhimurium, Strain/Indicator: TA100, Metabolic Activation: None, Method: Plate incorporation) was “inactive; negative”, the mutagenic call (Test System: Ames Salmonella typhimurium, Strain/Indicator: TA100, Metabolic Activation: Rat, Liver, S-9, Aroclor, Method: Plate incorporation) was “inactive; negative” and the mutagenic call (Test System: Ames Salmonella typhimurium, Strain/Indicator: TA1535, Metabolic Activation: None, Method: Plate incorporation) was “inactive; negative”. The mutagenic call (Test System: Ames Salmonella typhimurium, Strain/Indicator: TA1535, Metabolic Activation: Rat, Liver, S-9, Aroclor, Method: Plate incorporation) was “inactive; negative”, the mutagenic call (Test System: Ames Salmonella typhimurium, Strain/Indicator: TA1537, Metabolic Activation: None, Method: Plate incorporation) was “inactive; negative” and the mutagenic call (Test System: Ames Salmonella typhimurium, Strain/Indicator: TA1537, Metabolic Activation: Rat, Liver, S-9, Aroclor, Method: Plate incorporation) was “inactive; negative”. For the same molecule, the mutagenic call (Test System: Chinese hamster ovary (CHO) cells, Strain/Indicator: CHO/6-Thioguanine, Metabolic Activation: None) was “inactive; negative”, the mutagenic call (Test System: Chinese hamster ovary (CHO) cells, Strain/Indicator: CHO/6-Thioguanine, Metabolic Activation: S-9) was “inactive; negative” and the mutagenic call (Test System: E. coli, Strain/Indicator: WP2uvrA, Metabolic Activation: None, Method: Plate incorporation) was “inactive; negative”. For the same molecule, the mutagenic call (Test System: E. coli, Strain/Indicator: WP2uvrA, Metabolic Activation: Rat, Liver, S-9, Method: Plate incorporation) was “inactive; negative”.

In the case of `CC(=O)OCc1ccc(N=Nc2ccccc2COC(C)=O)cc1`, the mutagenic call [6] is reported as “active; positive” and the mutagenic call (Test System: AMES SALMONELLA TYPHIMURIUM, Strain/Indicator: TA100, Metabolic Activation: RAT, LIVER, S-9, POLYCHLORINATED BIPHENYLS, Method: PREINCUBATION) is reported as “inactive; negative”.

With `Nc1ccc(-c2ccc(N)cc2Cl)c(Cl)c1` the mutagenic call (Test System: AMES SALMONELLA TYPHIMURIUM, Strain/Indicator: TA98, Metabolic Activation: HAMSTER, LIVER, S-9, Method: PREINCUBATION (PRIVAL METHOD)) was “active; positive”, the mutagenic call (Test System: AMES SALMONELLA TYPHIMURIUM, Strain/Indicator: TA98, Metabolic Activation: NONE, Method: PREINCUBATION (PRIVAL METHOD)) was “active; positive” and the mutagenic call [7] was “active; positive”.

For `O=P(Oc1ccccc1)(Oc1ccccc1)Oc1ccccc1`, the mutagenic call (Test System: AMES SALMONELLA TYPHIMURIUM, Strain/Indicator: TA98, Metabolic Activation: HAMSTER, LIVER, S-9, AROCLOR 1254 (10%), Method: PREINCUBATION) was “inactive; negative”, the mutagenic call [1] was “inactive; negative” and the mutagenic call (Test System: AMES SALMONELLA TYPHIMURIUM, Strain/Indicator: TA98, Metabolic Activation: RAT, LIVER, S-9, AROCLOR 1254 (10%), Method: PREINCUBATION) was “inactive; negative”. For the same molecule, the mutagenic call (Test System: AMES SALMONELLA TYPHIMURIUM, Strain/Indicator: TA100, Metabolic Activation: HAMSTER, LIVER, S-9, AROCLOR 1254 (10%), Method: PREINCUBATION) was “inactive; negative”, the mutagenic call [6] was “inactive; negative” and the mutagenic call (Test System: AMES SALMONELLA TYPHIMURIUM, Strain/Indicator: TA100, Metabolic Activation: RAT, LIVER, S-9, AROCLOR 1254 (10%), Method: PREINCUBATION) was “inactive; negative”. For the same molecule, the mutagenic call (Test System: AMES SALMONELLA TYPHIMURIUM, Strain/Indicator: TA1535, Metabolic Activation: HAMSTER, LIVER, S-9, AROCLOR 1254 (10 OR 50%), Method: PREINCUBATION) was “inactive; negative”, the mutagenic call (Test System: AMES SALMONELLA TYPHIMURIUM, Strain/Indicator: TA1535, Metabolic Activation: NONE, Method: PREINCUBATION) was “inactive; negative” and the mutagenic call (Test System: AMES SALMONELLA TYPHIMURIUM, Strain/Indicator: TA1535, Metabolic Activation: RAT, LIVER, S-9, AROCLOR 1254 (10%), Method: PREINCUBATION) was “inactive; negative”. For the same molecule, the mutagenic call (Test System: AMES SALMONELLA TYPHIMURIUM, Strain/Indicator: TA1537, Metabolic Activation: HAMSTER, LIVER, S-9, AROCLOR 1254 (10 OR 50%), Method: PREINCUBATION) was “inactive; negative”, the mutagenic call (Test System: AMES SALMONELLA TYPHIMURIUM, Strain/Indicator: TA1537, Metabolic Activation: NONE, Method: PREINCUBATION) was “inactive; negative” and the mutagenic call (Test System: AMES SALMONELLA TYPHIMURIUM, Strain/Indicator: TA1537, Metabolic Activation: RAT, LIVER, S-9, AROCLOR 1254 (10%), Method: PREINCUBATION) was “inactive; negative”.

`Nc1c(Cl)cc(-c2cc(Cl)c(N)c(Cl)c2)cc1Cl` was tested, and the mutagenic call [7] was “active; positive”.

In the case of `COc1cc(NS(C)(=O)=O)ccc1Nc1c2ccc(N=[N+]=[N-])cc2nc2c(C)cccc12`, the mutagenic call (Test System: AMES SALMONELLA TYPHIMURIUM, Strain/Indicator: TA1537, Metabolic Activation: NONE, Method: STANDARD PLATE) is reported as “active; positive”.
